In test [1] the target is Serine/threonine-protein kinase PAK 5 (Homo sapiens) (UniProt Q9P286). The test can be described thus: Inhibition of PAK7 (unknown origin) at 1 uM by Ambit Kinomescan binding assay relative to control.
In test [2] the target is Receptor-interacting serine/threonine-protein kinase 1 (Homo sapiens) (UniProt Q13546). Kind of test: Inhibition of RIPK1 (unknown origin) at 1 uM by Ambit Kinomescan binding assay relative to control.
The target of test [3] is T1, EKC/KEOPS complex subunit TP53RK (Homo sapiens) (UniProt Q96S44).
T1 sequence (whole entry): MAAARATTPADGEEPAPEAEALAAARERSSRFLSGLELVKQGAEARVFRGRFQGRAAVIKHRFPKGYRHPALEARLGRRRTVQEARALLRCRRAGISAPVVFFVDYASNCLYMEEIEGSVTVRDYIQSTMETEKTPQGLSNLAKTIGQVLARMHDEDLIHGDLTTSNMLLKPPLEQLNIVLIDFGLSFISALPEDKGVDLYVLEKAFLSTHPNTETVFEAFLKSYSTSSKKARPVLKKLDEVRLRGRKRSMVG
Kind of test: Inhibition of PRPK ATP Loop labeling site in human A-375 cells at 0.05 uM by KiNativ Profiling analysis relative to control. The test is classed as cell-based.

For test [4], the target named is T2, Mitogen-activated protein kinase kinase kinase 15 (Homo sapiens) (UniProt Q6ZN16).
T2 sequence (whole entry): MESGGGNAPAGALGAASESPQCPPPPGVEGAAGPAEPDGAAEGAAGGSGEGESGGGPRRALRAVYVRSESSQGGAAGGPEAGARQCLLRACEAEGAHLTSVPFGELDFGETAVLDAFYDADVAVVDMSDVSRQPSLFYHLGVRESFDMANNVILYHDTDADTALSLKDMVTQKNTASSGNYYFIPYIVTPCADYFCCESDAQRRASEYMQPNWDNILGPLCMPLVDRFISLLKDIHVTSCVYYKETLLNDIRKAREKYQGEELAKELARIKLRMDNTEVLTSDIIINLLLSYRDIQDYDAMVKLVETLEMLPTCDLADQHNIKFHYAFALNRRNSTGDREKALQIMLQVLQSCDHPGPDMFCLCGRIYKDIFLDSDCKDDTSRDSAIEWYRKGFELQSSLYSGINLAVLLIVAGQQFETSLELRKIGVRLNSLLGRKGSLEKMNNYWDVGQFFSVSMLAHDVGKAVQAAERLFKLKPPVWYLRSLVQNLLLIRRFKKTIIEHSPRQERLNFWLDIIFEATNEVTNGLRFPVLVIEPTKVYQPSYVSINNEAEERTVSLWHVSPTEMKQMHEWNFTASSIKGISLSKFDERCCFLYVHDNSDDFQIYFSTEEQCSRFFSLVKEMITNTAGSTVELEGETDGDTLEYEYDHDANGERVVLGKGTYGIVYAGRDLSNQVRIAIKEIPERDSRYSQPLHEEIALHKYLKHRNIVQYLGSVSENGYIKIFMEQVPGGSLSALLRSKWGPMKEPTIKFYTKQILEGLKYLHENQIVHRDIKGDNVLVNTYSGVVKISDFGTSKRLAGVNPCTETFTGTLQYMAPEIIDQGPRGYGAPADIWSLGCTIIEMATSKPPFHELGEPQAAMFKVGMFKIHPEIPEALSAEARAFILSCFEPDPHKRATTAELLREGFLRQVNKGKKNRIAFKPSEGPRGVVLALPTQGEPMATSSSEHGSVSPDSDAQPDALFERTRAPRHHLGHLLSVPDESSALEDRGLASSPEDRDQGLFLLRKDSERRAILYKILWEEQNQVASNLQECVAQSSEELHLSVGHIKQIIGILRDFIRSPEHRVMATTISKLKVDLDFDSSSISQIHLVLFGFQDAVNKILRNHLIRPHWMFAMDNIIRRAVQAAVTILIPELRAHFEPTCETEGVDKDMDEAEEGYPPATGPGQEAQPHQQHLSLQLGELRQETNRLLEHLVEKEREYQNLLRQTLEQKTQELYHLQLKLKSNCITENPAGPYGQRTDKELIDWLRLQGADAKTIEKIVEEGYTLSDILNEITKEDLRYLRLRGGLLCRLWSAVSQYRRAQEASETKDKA
The test can be described thus: Inhibition of MAP3K15 Lys1 labeling site harbouring IAIKEIPERDSR in human A-375 cells at 5 uM by KiNativ Profiling analysis relative to control. The test is classed as cell-based.

For test [5], the target named is T3, Inhibitor of nuclear factor kappa-B kinase subunit epsilon (Homo sapiens) (UniProt Q14164).
T3 sequence (whole entry): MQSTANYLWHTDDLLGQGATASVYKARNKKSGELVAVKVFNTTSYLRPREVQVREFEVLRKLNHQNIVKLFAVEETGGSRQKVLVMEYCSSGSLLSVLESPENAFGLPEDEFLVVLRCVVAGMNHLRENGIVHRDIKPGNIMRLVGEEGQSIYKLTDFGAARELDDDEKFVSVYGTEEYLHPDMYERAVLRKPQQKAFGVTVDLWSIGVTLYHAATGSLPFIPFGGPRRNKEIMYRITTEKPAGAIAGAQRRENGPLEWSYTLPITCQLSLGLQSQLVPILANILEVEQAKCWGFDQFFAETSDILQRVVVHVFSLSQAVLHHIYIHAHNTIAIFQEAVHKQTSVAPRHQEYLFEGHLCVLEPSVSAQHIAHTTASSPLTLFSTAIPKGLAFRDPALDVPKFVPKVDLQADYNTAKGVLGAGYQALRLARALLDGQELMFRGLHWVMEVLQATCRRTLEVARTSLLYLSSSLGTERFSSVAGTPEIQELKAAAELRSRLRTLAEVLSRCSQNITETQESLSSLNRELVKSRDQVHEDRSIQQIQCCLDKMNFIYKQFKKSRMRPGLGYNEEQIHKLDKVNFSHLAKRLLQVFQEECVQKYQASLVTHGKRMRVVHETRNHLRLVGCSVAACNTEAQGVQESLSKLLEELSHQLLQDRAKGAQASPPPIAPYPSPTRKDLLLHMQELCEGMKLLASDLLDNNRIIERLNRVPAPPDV
Kind of test: Inhibition of IKK-epsilon (unknown origin) at 10 uM by Ambit Kinomescan binding assay.

Molecules are shown by their SMILES. Activity calls are given as the source filed them. The calls are words filed in the database; no cut-off is given here.

One may read the inhibition as the change of the read-out against control, counted positive when it falls.

Serine/threonine-protein kinase PAK 5 (Homo sapiens), sequence (Q9P286 whole entry, looked up): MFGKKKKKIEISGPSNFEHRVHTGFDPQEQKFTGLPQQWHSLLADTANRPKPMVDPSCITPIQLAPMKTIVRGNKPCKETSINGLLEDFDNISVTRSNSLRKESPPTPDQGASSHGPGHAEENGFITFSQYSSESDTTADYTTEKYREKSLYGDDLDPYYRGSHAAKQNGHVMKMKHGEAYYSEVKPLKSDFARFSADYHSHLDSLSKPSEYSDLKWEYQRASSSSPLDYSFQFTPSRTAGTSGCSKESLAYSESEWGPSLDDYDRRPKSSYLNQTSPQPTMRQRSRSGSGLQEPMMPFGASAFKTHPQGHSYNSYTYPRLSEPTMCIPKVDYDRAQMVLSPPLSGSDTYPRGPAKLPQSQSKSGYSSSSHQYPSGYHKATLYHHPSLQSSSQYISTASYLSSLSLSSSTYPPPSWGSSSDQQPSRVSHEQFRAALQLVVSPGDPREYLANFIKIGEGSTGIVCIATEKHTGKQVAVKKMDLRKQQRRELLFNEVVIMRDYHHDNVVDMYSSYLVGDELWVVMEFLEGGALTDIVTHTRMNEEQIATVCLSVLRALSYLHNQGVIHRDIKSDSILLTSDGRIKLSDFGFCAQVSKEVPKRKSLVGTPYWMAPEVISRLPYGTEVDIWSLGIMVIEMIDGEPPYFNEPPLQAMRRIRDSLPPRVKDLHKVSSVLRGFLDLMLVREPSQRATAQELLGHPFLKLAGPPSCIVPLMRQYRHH
Receptor-interacting serine/threonine-protein kinase 1 (Homo sapiens), sequence (Q13546 whole entry): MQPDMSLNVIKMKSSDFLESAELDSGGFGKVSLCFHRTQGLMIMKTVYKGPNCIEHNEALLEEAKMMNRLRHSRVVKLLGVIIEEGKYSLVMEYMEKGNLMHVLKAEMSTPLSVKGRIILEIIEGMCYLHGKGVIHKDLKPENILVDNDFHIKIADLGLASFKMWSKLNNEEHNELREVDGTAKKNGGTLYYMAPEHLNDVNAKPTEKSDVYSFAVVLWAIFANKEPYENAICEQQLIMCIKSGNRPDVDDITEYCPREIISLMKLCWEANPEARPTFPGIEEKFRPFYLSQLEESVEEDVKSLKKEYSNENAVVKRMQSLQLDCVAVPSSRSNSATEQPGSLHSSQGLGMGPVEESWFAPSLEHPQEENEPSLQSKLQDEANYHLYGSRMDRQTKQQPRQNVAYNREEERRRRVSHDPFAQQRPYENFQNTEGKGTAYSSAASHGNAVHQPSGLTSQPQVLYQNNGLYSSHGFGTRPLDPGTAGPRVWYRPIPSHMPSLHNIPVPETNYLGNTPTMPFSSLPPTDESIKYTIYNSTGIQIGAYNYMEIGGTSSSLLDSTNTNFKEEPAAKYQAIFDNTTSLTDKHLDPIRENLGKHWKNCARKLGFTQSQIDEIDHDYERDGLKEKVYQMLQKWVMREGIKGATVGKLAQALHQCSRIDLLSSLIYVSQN

Take `CCN1CCN(Cc2ccc(NC(=O)c3ccc(C)c(/C=C/c4cnc5[nH]ccc5c4OC)c3)cc2C(F)(F)F)CC1`: the inhibition in test [1] is 70%; in test [2] it was 15%; in test [3], -1.5%.
On to `CCN1CCN(Cc2ccc(NC(=O)c3ccc(C)c(Oc4ccnc5[nH]ccc45)c3)cc2C(F)(F)F)CC1`, for which the inhibition in test [4] is -3.2%. In addition, the inhibition result in test [5] is “inactive”.

(Values after ChEMBL document CHEMBL5696442, “Discovery of type II inhibitors of TGFβ-activated kinase 1 (TAK1) and mitogen-activated protein kinase kinase kinase kinase 2 (MAP4K2)” (J Med Chem, 2015).)
